The source of these data is US20240360151A1 (SANOFI, priority 2023, published 2024).

In general, IC50 refers to the point on the concentration scale where inhibition reaches its midpoint.

One assay has as its target T1, NLRP3 inflammasome (Homo sapiens, UniProt Q96P20).
T1 construct: endogenous in cells; host or cells: THP-1 monocytic cells
Briefly: IL-1β secretion assay (NLRP3 IC50) in LPS-primed, nigericin-activated THP-1 cells, HTRF. The note with it: monocytic THP-1 cells; LPS 10 ng/mL 3 h priming, then compound + nigericin 10 μM 2 h; relative IC50, 10 concentrations, geometric mean. The assay is classed as cell-based. The method in brief: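 IL-1β in supernatant read by HTRF after 2 h co-incubation of compound (0.1% DMSO, 10 concentrations, 1:3 series) with nigericin at 10 μM final, following 3 h LPS (10 ng/mL) priming of THP-1 monocytes at 37° C. Inhibition normalised to unactivated and no-compound controls; geometric-mean relative IC50 from 4-parameter logistic model.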
In general terms: In TR-FRET formats the signal depends on donor and acceptor labels being close together.

The test system of assay [1] is NF-kB pathway (TNF-α secretion by THP-1 cells). Put plainly: TNF-α secretion assay in LPS-stimulated THP-1 cells, Lumit immunoassay. The assay is classed as cell-based, human. The following applies: Homo sapiens, THP-1, 3 h, monocytic THP-1 cells, LPS 10 ng/mL, relative IC50, 10 concentrations, geometric mean. In outline: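 TNF-α release was quantified directly in the cell plate by Lumit immunoassay after a 3-h, 10 ng/mL LPS trigger of compound-treated THP-1 cells (RPMI, 5% FBS). Percent inhibition versus no-compound and unstimulated controls fed a 4-parameter logistic fit over 10 concentrations, giving geometric-mean relative IC50.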

T1 sequence (Q96P20 whole entry): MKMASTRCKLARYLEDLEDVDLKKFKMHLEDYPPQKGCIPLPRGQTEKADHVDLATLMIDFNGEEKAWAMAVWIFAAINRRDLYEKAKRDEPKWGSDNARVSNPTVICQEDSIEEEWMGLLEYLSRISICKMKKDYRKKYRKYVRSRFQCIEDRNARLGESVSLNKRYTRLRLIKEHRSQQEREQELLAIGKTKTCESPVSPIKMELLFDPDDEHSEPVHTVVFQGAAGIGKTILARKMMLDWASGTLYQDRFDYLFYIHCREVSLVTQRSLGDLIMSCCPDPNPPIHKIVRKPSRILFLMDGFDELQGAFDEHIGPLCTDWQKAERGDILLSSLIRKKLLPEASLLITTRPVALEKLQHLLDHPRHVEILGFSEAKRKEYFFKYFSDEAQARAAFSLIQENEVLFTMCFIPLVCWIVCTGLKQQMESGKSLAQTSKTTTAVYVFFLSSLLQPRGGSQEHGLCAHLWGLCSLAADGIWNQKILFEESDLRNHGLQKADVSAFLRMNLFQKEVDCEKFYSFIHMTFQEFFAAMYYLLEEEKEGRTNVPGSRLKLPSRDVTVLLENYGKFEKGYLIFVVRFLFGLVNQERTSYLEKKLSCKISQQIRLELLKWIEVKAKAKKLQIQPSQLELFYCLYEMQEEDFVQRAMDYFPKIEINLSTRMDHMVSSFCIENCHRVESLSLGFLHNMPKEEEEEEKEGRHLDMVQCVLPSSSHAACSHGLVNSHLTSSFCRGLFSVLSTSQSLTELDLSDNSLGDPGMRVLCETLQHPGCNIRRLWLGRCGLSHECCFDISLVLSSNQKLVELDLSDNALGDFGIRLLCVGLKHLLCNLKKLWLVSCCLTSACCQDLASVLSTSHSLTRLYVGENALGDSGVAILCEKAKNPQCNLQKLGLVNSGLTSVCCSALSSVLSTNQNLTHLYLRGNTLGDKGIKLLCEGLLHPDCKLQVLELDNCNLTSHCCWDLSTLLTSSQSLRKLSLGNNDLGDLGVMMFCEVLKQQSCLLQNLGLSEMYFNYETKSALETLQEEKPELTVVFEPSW

Take `COC[C@@H]1CN(c2ccc(-c3c(O)cc(Cl)cc3Cl)nn2)CCO1` [Example 35, 3,5-dichloro-2-[6-[(2S)-2-(methoxymethyl)morpholin-4-yl]pyridazin-3-yl]phenol]: the IC50 on NLRP3 inflammasome was 501 nM; in assay [1], greater than 10000 nM.

In the case of `CCc1cc(N2CCO[C@@H]3CCN(C)C[C@@H]32)nnc1-c1ccc(C(F)(F)F)cc1O` [Example 443, 2-[6-[(4aS,8aR)-6-methyl-3,4a,5,7,8,8a-hexahydro-2H-pyrido[4,3-b][1,4]oxazin-4-yl]-4-ethyl-pyridazin-3-yl]-5-(trifluoromethyl)phenol], the IC50 was 10 nM on NLRP3 inflammasome and greater than 10000 nM in assay [1].

As to `CC(=O)N1CC[C@@H]2OCCN(c3ccc(-c4c(C)cc(C(F)(F)F)cc4O)nn3)[C@@H]2C1` (single isomer, unassigned) [Example 263], the values for the IC50 (at NLRP3 inflammasome; in assay [1]) were 180 nM and greater than 10000 nM, respectively.

As to `OC[C@@H]1CN(c2ccc(-c3c(O)cccc3C(F)(F)F)nn2)CCO1` [Example 54, 2-[6-[(2S)-2-(hydroxymethyl)morpholin-4-yl]pyridazin-3-yl]-3-(trifluoromethyl) phenol], the IC50 is 132 nM at NLRP3 inflammasome and greater than 10000 nM in assay [1].

Take `Cc1ccc(-c2nnc(N3CCO[C@@H]4CCN(C)C[C@@H]43)cc2C)c(O)c1` [Example 373, 2-[6-[(4aS,8aR)-6-methyl-3,4a,5,7,8,8a-hexahydro-2H-pyrido[4,3-b][1,4]oxazin-4-yl]-4-methyl-pyridazin-3-yl]-5-methyl-phenol]: the IC50 is 1.1 nM at NLRP3 inflammasome and greater than 10000 nM in assay [1].

As to `Cc1cc(C(F)(F)F)cc(O)c1-c1ccc(N2C[C@@H](N)CC2=O)nn1` [Example 250, (4S)-4-amino-1-[6-[2-hydroxy-6-methyl-4-(trifluoromethyl)phenyl]pyridazin-3-yl]pyrrolidin-2-one], the IC50 on NLRP3 inflammasome is 249 nM; in assay [1], greater than 10000 nM.

On to `[O-][S+]1CCN(c2ccc(-c3c(O)cc(Cl)cc3Cl)nn2)CC1` [Example 400, 3,5-dichloro-2-[6-(1-oxo-1,4-thiazinan-4-yl)pyridazin-3-yl]phenol], for which the IC50 is 93 nM at NLRP3 inflammasome and greater than 10000 nM in assay [1].

On to `Cc1cc(C(F)(F)F)cc(O)c1-c1ccc(N2C[C@@H](CO)O[C@@H](CO)C2)nn1` [Example 178, 2-[6-[(2R,6S)-2,6-bis(hydroxymethyl)morpholin-4-yl]pyridazin-3-yl]-3-methyl-5-(trifluoromethyl)phenol], for which the figures for the IC50 (on NLRP3 inflammasome; in assay [1]) were 7 nM and greater than 10000 nM, respectively.

With `Cc1cc(N2CCO[C@@H]3CCN(C)C[C@@H]32)nnc1-c1cccc(F)c1O` [Example 356, 2-[6-[(4aS,8aR)-6-methyl-3,4a,5,7,8,8a-hexahydro-2H-pyrido[4,3-b][1,4]oxazin-4-yl]-4-methyl-pyridazin-3-yl]-6-fluoro-phenol], the IC50 was 61 nM on NLRP3 inflammasome and greater than 10000 nM in assay [1].

With `Cc1cc(C)c(-c2ccc(N3CC[C@H](CO)C3)nn2)c(O)c1` [Example 79, 2-[6-[(3S)-3-(hydroxymethyl)pyrrolidin-1-yl]pyridazin-3-yl]-3,5-dimethyl-phenol], the IC50 at NLRP3 inflammasome worked out at 285 nM; in assay [1], 9500 nM.

For `Oc1cc(Cl)cc(Cl)c1-c1ccc(N2CCSCC2)nn1` [Example 203, 3,5-dichloro-2-(6-thiomorpholinopyridazin-3-yl)phenol], the IC50 was found to be 332 nM at NLRP3 inflammasome and 9990 nM in assay [1].

Consider `Cc1cc(C(F)(F)F)cc(O)c1-c1cc(C(F)F)c(N2CCO[C@H](CO)C2)nn1` [Example 194, 2-[5-(difluoromethyl)-6-[(2S)-2-(hydroxymethyl)morpholin-4-yl]pyridazin-3-yl]-3-methyl-5-(trifluoromethyl)phenol], for which the IC50 on NLRP3 inflammasome is 4 nM; in assay [1] it was greater than 10000 nM.

For the molecule `Cc1cc(O)c(-c2ccc(N3CCO[C@H](CO)C3)nn2)c(Cl)c1` [Example 172, 3-chloro-2-[6-[(2S)-2-(hydroxymethyl)morpholin-4-yl]pyridazin-3-yl]-5-methyl-phenol], the results for the half-maximal inhibitory concentration (IC50) (on NLRP3 inflammasome; in assay [1]) were 36 nM and greater than 10000 nM, respectively.

`Cc1cc(C)c(-c2ccc(N3C[C@@H](CO)O[C@@H](CO)C3)nn2)c(O)c1` [Example 173, 2-[6-[(2R,6S)-2,6-bis(hydroxymethyl)morpholin-4-yl]pyridazin-3-yl]-3,5-dimethyl-phenol]: the IC50 at NLRP3 inflammasome was 40 nM; in assay [1], greater than 10000 nM.

As for `Cc1cc(Cl)cc(O)c1-c1cc(C(F)F)c(N2CCO[C@H](CO)C2)nn1` [Example 171, 5-chloro-2-[5-(difluoromethyl)-6-[(2S)-2-(hydroxymethyl)morpholin-4-yl]pyridazin-3-yl]-3-methyl-phenol], the IC50 on NLRP3 inflammasome is 7 nM; in assay [1], greater than 10000 nM.

`Cc1cc(C)c(-c2ccc(N3CCOC([C@@H](C)O)C3)nn2)c(O)c1` (single isomer, unassigned) [Example 180]: the IC50 on NLRP3 inflammasome is 473 nM; in assay [1] it was greater than 10000 nM.

Turning to `Cc1cc(C(F)(F)F)cc(O)c1-c1ccc(N2CCO[C@H]3CCNC[C@H]32)nn1` (single isomer, unassigned) [Example 251], the IC50 at NLRP3 inflammasome was 21 nM; in assay [1], greater than 10000 nM.

For the molecule `Cc1cc(C)c(-c2ccc(N3CCO[C@@H](CC(N)=O)C3)nn2)c(O)c1` (single isomer, unassigned) [Example 147], the IC50 on NLRP3 inflammasome is 575 nM; in assay [1], greater than 10000 nM.

For `Cc1cc(C)c(-c2cc(C#N)c(N3CCO[C@H](CO)C3)nn2)c(O)c1` [Example 158, 6-(2-hydroxy-4,6-dimethyl-phenyl)-3-[(2S)-2-(hydroxymethyl)morpholin-4-yl]pyridazine-4-carbonitrile], the IC50 at NLRP3 inflammasome is 85 nM; in assay [1], greater than 10000 nM.

For the molecule `CC(=O)NC[C@H]1CN(c2ccc(-c3c(C)cc(C(F)(F)F)cc3O)nn2)CCO1` [Example 275, N-[[(2S)-4-[6-[2-hydroxy-6-methyl-4-(trifluoromethyl)phenyl]pyridazin-3-yl]morpholin-2-yl]methyl]acetamide], the IC50 was 127 nM on NLRP3 inflammasome and greater than 10000 nM in assay [1].

Turning to `Cc1cc(C(F)(F)F)cc(O)c1-c1ccc(N2CCO[C@@H]3CCN(C4CCC4)C[C@@H]32)nn1` (single isomer, unassigned) [Example 13], the IC50 at NLRP3 inflammasome was 2 nM; in assay [1] it was greater than 10000 nM.

As to `Cc1cc(C)c(-c2ccc(N3C[C@H](CO)O[C@H](C)C3)nn2)c(O)c1` [Example 365, 2-[6-[(2R,6R)-2-(hydroxymethyl)-6-methyl-morpholin-4-yl]pyridazin-3-yl]-3,5-dimethyl-phenol], the values for the IC50 (on NLRP3 inflammasome; in assay [1]) were 28 nM and greater than 10000 nM, respectively.

For `Cc1cc(OC(F)(F)F)cc(O)c1-c1ccc(N2CCO[C@H](CO)C2)nn1` [Example 121, 2-[6-[(2S)-2-(hydroxymethyl)morpholin-4-yl]pyridazin-3-yl]-3-methyl-5-(trifluoromethoxy)phenol], the values for the IC50 (on NLRP3 inflammasome; in assay [1]) were 92 nM and greater than 10000 nM, respectively.

As to `CCN1CC[C@H]2OCCN(c3cc(C(F)F)c(-c4ccc(C)cc4O)nn3)[C@H]2C1` [Example 323, 2-[6-[(4aS,8aR)-6-ethyl-3,4a,5,7,8,8a-hexahydro-2H-pyrido[4,3-b][1,4]oxazin-4-yl]-4-(difluoromethyl)pyridazin-3-yl]-5-methyl-phenol], the IC50 was 3 nM at NLRP3 inflammasome and greater than 10000 nM in assay [1].

On to `Cc1cc(Cl)cc(O)c1-c1ccc(N2C[C@@H](O)CC2=O)nn1` [Example 130, (4S)-1-[6-(4-chloro-2-hydroxy-6-methyl-phenyl)pyridazin-3-yl]-4-hydroxy-pyrrolidin-2-one], for which the IC50 at NLRP3 inflammasome is 99 nM; in assay [1] it was greater than 10000 nM.

Take `CC(=O)NC[C@@H]1CN(c2ccc(-c3c(C)cc(C(F)(F)F)cc3O)nn2)CCO1` [Example 216, N-[[(2R)-4-[6-[2-hydroxy-6-methyl-4-(trifluoromethyl)phenyl]pyridazin-3-yl]morpholin-2-yl]methyl]acetamide]: the IC50 is 128 nM at NLRP3 inflammasome and greater than 10000 nM in assay [1].

For the molecule `Cc1cc(C(F)(F)F)cc(O)c1-c1cc(C#N)c(N2CCO[C@H](CO)C2)nn1` [Example 159, 3-[(2S)-2-(hydroxymethyl)morpholin-4-yl]-6-[2-hydroxy-6-methyl-4-(trifluoromethyl)phenyl]pyridazine-4-carbonitrile], the values for the IC50 (on NLRP3 inflammasome; in assay [1]) were 43 nM and greater than 10000 nM, respectively.

With `Cc1cc(C)c(-c2ccc(N3CC[C@@H]4CCN(C)C[C@@H]43)nn2)c(O)c1` (single isomer, unassigned) [Example 384], the IC50 was 0.4 nM on NLRP3 inflammasome and greater than 10000 nM in assay [1].

Regarding `Cc1cc(C(F)(F)F)cc(O)c1-c1ccc(N2CCO[C@H](C)C2)nn1` [Example 258, 3-methyl-2-[6-[(2R)-2-methylmorpholin-4-yl]pyridazin-3-yl]-5-(trifluoromethyl)phenol], the figures for the IC50 (on NLRP3 inflammasome; in assay [1]) were 30 nM and greater than 10000 nM, respectively.
